According to ChEMBL document CHEMBL1150850, “Cytotoxic principles from Ventilago leiocarpa” (J Nat Prod, 2001):
pIC50: −log10 of the molar value. Blank lines part the entries; values can stand above or below the compound they belong to.

Legend:
HeLa [1] = assay: Inhibition of human HeLa cell proliferation assessed as [3H]thymidine incorporation after 3 days by scintillation counting; type: functional, cell-based
Vero [2] = assay: Inhibition of african green monkey Vero cell proliferation assessed as [3H]thymidine incorporation after 3 days by scintillation counting; type: cell-based; settings: Chlorocebus sabaeus
K562 [3] = assay: Inhibition of human K562 cell proliferation assessed as [3H]thymidine incorporation after 3 days by scintillation counting; type: functional, cell-based
Raji [4] = assay: Inhibition of human Raji cell proliferation assessed as [3H]thymidine incorporation after 3 days by scintillation counting; type: functional, cell-based
WISH [5] = assay: Inhibition of human WISH cell proliferation assessed as [3H]thymidine incorporation after 3 days by scintillation counting; type: functional, cell-based
Calu-1 [6] = assay: Inhibition of human Calu1 cell proliferation assessed as [3H]thymidine incorporation after 3 days by scintillation counting; type: functional, cell-based
Raji [7] = assay: Growth inhibition of human Raji cells assessed as [3H]thymidine incorporation at 6.25 uM after 3 days by scintillation counting; type: functional; settings: read-out: GI
WISH [8] = assay: Growth inhibition of human WISH cells assessed as [3H]thymidine incorporation at 12.5 uM after 3 days by scintillation counting; type: functional; settings: read-out: GI
Vero [9] = assay: Growth inhibition of african green monkey Vero cells assessed as [3H]thymidine incorporation at 12.5 uM after 3 days by scintillation counting; type: cell-based; settings: chlorocebus sabaeus, 72 h
K562 [10] = assay: Growth inhibition of human K562 cells assessed as [3H]thymidine incorporation at 12.5 uM after 3 days by scintillation counting; type: functional; settings: read-out: GI
K562 [11] = assay: Growth inhibition of human K562 cells assessed as [3H]thymidine incorporation at 3.125 uM after 3 days by scintillation counting; type: functional; settings: read-out: GI
Calu-1 [12] = assay: Growth inhibition of human Calu1 cells assessed as [3H]thymidine incorporation at 50 uM after 3 days by scintillation counting; type: functional; settings: read-out: GI
[13] = Growth inhibition of african green monkey Vero cells assessed as [3H]thymidine incorporation at 50 uM after 3 days by scintillation counting; type: cell-based; settings: chlorocebus sabaeus, read-out: GI
HeLa [14] = assay: Growth inhibition of human HeLa cells assessed as [3H]thymidine incorporation at 12.5 uM after 3 days by scintillation counting; type: functional; settings: read-out: GI
Calu-1 [15] = assay: Growth inhibition of human Calu1 cells assessed as [3H]thymidine incorporation at 3.125 uM after 3 days by scintillation counting; type: functional; settings: read-out: GI
WISH [16] = assay: Growth inhibition of human WISH cells assessed as [3H]thymidine incorporation at 6.25 uM after 3 days by scintillation counting; type: functional; settings: read-out: GI
[17] = Growth inhibition of african green monkey Vero cells assessed as [3H]thymidine incorporation at 25 uM after 3 days by scintillation counting; type: cell-based; settings: chlorocebus sabaeus, read-out: GI
WISH [18] = assay: Growth inhibition of human WISH cells assessed as [3H]thymidine incorporation at 3.125 uM after 3 days by scintillation counting; type: functional; settings: read-out: GI
HeLa [19] = assay: Growth inhibition of human HeLa cells assessed as [3H]thymidine incorporation at 25 uM after 3 days by scintillation counting; type: functional; settings: read-out: GI
Raji [20] = assay: Growth inhibition of human Raji cells assessed as [3H]thymidine incorporation at 50 uM after 3 days by scintillation counting; type: functional; settings: read-out: GI
K562 [21] = assay: Growth inhibition of human K562 cells assessed as [3H]thymidine incorporation at 50 uM after 3 days by scintillation counting; type: functional; settings: read-out: GI
WISH [22] = assay: Growth inhibition of human WISH cells assessed as [3H]thymidine incorporation at 50 uM after 3 days by scintillation counting; type: functional; settings: read-out: GI
HeLa [23] = assay: Growth inhibition of human HeLa cells assessed as [3H]thymidine incorporation at 50 uM after 3 days by scintillation counting; type: functional; settings: read-out: GI
[24] = Growth inhibition of african green monkey Vero cells assessed as [3H]thymidine incorporation at 3.125 uM after 3 days by scintillation counting; type: cell-based; settings: chlorocebus sabaeus, read-out: GI
Raji [25] = assay: Growth inhibition of human Raji cells assessed as [3H]thymidine incorporation at 3.125 uM after 3 days by scintillation counting; type: functional; settings: read-out: GI
Raji [26] = assay: Growth inhibition of human Raji cells assessed as [3H]thymidine incorporation at 25 uM after 3 days by scintillation counting; type: functional; settings: read-out: GI
K562 [27] = assay: Growth inhibition of human K562 cells assessed as [3H]thymidine incorporation at 6.25 uM after 3 days by scintillation counting; type: functional; settings: read-out: GI
Calu-1 [28] = assay: Growth inhibition of human Calu1 cells assessed as [3H]thymidine incorporation at 6.25 uM after 3 days by scintillation counting; type: functional; settings: read-out: GI
Raji [29] = assay: Growth inhibition of human Raji cells assessed as [3H]thymidine incorporation at 12.5 uM after 3 days by scintillation counting; type: functional; settings: read-out: GI
WISH [30] = assay: Growth inhibition of human WISH cells assessed as [3H]thymidine incorporation at 25 uM after 3 days by scintillation counting; type: functional; settings: read-out: GI
K562 [31] = assay: Growth inhibition of human K562 cells assessed as [3H]thymidine incorporation at 25 uM after 3 days by scintillation counting; type: functional; settings: read-out: GI
Calu-1 [32] = assay: Growth inhibition of human Calu1 cells assessed as [3H]thymidine incorporation at 25 uM after 3 days by scintillation counting; type: functional; settings: read-out: GI
HeLa [33] = assay: Growth inhibition of human HeLa cells assessed as [3H]thymidine incorporation at 6.25 uM after 3 days by scintillation counting; type: functional; settings: read-out: GI
[34] = Growth inhibition of african green monkey Vero cells assessed as [3H]thymidine incorporation at 6.25 uM after 3 days by scintillation counting; type: cell-based; settings: chlorocebus sabaeus, read-out: GI
Calu-1 [35] = assay: Growth inhibition of human Calu1 cells assessed as [3H]thymidine incorporation at 12.5 uM after 3 days by scintillation counting; type: functional; settings: read-out: GI
HeLa [36] = assay: Growth inhibition of human HeLa cells assessed as [3H]thymidine incorporation at 3.125 uM after 3 days by scintillation counting; type: functional; settings: read-out: GI

pIC50 (HeLa [1]): < 4.00
pIC50 (K562 [3]): < 4.00
pIC50 (Raji [4]): < 4.00
pIC50 (Calu-1 [6]): < 4.00
SMILES: COC1=C(O)C(=O)c2c(O)c3c(c(OC)c2C1=O)CC(C)OC3C (centres undefined) [VENTILOQUINONE K]
pIC50 (Vero [2]): < 4.00
pIC50 (WISH [5]): < 4.00

pIC50 (HeLa [1]): 4.95
pIC50 (K562 [3]): 4.56
pIC50 (Raji [4]): 4.91
pIC50 (Calu-1 [6]): 4.81
SMILES: Cc1cc(O)c2c(c1)C(=O)c1c(c(O)cc(O)c1-c1c(O)cc(O)c3c1C(=O)c1cc(C)cc(O)c1C3=O)C2=O [SKYRIN]
inhibition of growth at 6.25 µM (Raji [7]): 36.8%
inhibition of growth at 12.5 µM (WISH [8]): 37.8%
growth inhibition (GI) (Vero [9]): 34.8%
inhibition of growth at 12.5 µM (K562 [10]): 33.5%
inhibition of growth at 3.125 µM (K562 [11]): 29.7%
inhibition of growth at 50 µM (Calu-1 [12]): 100%
inhibition at 72 h, 50 µM [13]: 100%
inhibition of growth at 12.5 µM (HeLa [14]): 55%
inhibition of growth at 3.125 µM (Calu-1 [15]): 14.3%
inhibition of growth at 6.25 µM (WISH [16]): 23.4%
inhibition at 72 h, 25 µM [17]: 70.5%
pIC50 (Vero [2]): 4.74
inhibition of growth at 3.125 µM (WISH [18]): 24.7%
inhibition of growth at 25 µM (HeLa [19]): 100%
inhibition of growth at 50 µM (Raji [20]): 100%
inhibition of growth at 50 µM (K562 [21]): 100%
inhibition of growth at 50 µM (WISH [22]): 100%
inhibition of growth at 50 µM (HeLa [23]): 100%
inhibition at 72 h, 3.125 µM [24]: 19.9%
pIC50 (WISH [5]): 4.67
inhibition of growth at 3.125 µM (Raji [25]): 33.8%
inhibition of growth at 25 µM (Raji [26]): 82.1%
inhibition of growth at 6.25 µM (K562 [27]): 22.2%
inhibition of growth at 6.25 µM (Calu-1 [28]): 20.6%
inhibition of growth at 12.5 µM (Raji [29]): 48.1%
inhibition of growth at 25 µM (WISH [30]): 60%
inhibition of growth at 25 µM (K562 [31]): 50.6%
inhibition of growth at 25 µM (Calu-1 [32]): 100%
inhibition of growth at 6.25 µM (HeLa [33]): 27%
inhibition at 72 h, 6.25 µM [34]: 23.1%
inhibition of growth at 12.5 µM (Calu-1 [35]): 24.9%
inhibition of growth at 3.125 µM (HeLa [36]): 5.8%

pIC50 (HeLa [1]): < 4.00
pIC50 (K562 [3]): < 4.00
pIC50 (Raji [4]): < 4.00
pIC50 (Calu-1 [6]): < 4.00
SMILES: C=C(C)[C@@H]1CC[C@]2(C)CC[C@]3(C)[C@H](CC[C@@H]4[C@@]5(C)CC[C@H](O)C(C)(C)[C@@H]5CC[C@]43C)[C@@H]12 [LUPEOL]
pIC50 (Vero [2]): < 4.00
pIC50 (WISH [5]): < 4.00

SMILES: CC[C@H](/C=C/[C@@H](C)[C@H]1CC[C@H]2[C@@H]3CC=C4C[C@@H](O)CC[C@]4(C)[C@H]3CC[C@]12C)C(C)C [STIGMASTEROL]
pIC50 (HeLa [1]): < 4.00
pIC50 (Vero [2]): < 4.00
pIC50 (K562 [3]): < 4.00
pIC50 (Raji [4]): < 4.00
pIC50 (WISH [5]): < 4.00
pIC50 (Calu-1 [6]): < 4.00
